Drawing on a melting point compilation (Tetko et al.; mined from patent text by program, amines drawn as free bases though some values may be those of a salt), this text covers melting point for 89 compounds.

`O=C(NC(=O)c1cccs1)NC1CCN(Cc2ccc3ccccc3c2)CC1`: the melting point was in the range of 217 to 219 °C.
The same measure for `O=c1[nH]c2ccccc2c(=O)n1CCN1CCC(C(O)c2ccc(F)cc2)CC1` (centres undefined): 213 °C; for `CC1CC(=O)c2c(Cl)c(F)cc3c(=O)c(C(=O)O)cn1c23` (single isomer, unassigned; (-)): 294 to 296 °C; for `O=C(CCCN1CCC(c2ccccc2Cc2ccccc2)C1)c1ccc(F)cc1` (centres undefined): 126 to 128 °C.
The compound `COC(=O)C1(NC(=O)Cc2cc(C(C)=O)ccc2C)CCN(OC)CC1` came in with a melting point of 138 to 139 °C.
Consider `CC(=O)N1CCCC1c1ccnc(-c2nc(=O)c3ccccc3s2)c1` (centres undefined), for which the melting point is 206 to 207 °C.
In turn, `CCCCn1cnc2c1c(=O)n(CCCCC(C)=O)c(=O)n2C` showed a melting point of 79 to 80 °C.
`Cc1cc(C)c2c(c1C)OC(C)(C)C2=O` returned a melting point of 99 to 101 °C.
As for `COc1ccc(Cc2nc3c(N)nc4ccccc4c3n2CCCCNC(=O)c2ccc3ccccc3n2)cc1`, the melting point lay in the range of 95.1 to 97.4 °C.
Compound `CC(C)C(OC(=O)C(C)(C)C)n1nnc(-c2ccccc2-c2ccc(Oc3c(C4CC4)nc4ccccc4c3C(=O)O)cc2)n1` (centres undefined) showed a melting point of 165 to 168 °C.
As to `CCCC(=O)c1cnc2ccc(O)cc2c1Cl`, the melting point fell in the range of 157 to 160 °C.
Compound `CCNC(=NS(=O)(=O)c1ccc(N)cc1)N1CC2(C=N1)CCCC2` yielded a melting point of 141 to 142 °C.
In turn, `CCOCc1nc2c(N)nc3cc(OCc4ccccc4)ccc3c2n1CC1COC(C)(C)O1` (centres undefined) came in with a melting point of 186 to 187 °C.
Turning to `COc1ccc(C#Cc2cc(C(=O)O)nc(C(=O)O)c2)cc1`, the melting point was over 300 °C.
The compound `COc1cc2c(cc1Br)-c1cc3c(n1CC2)C(=O)N(C(C)(C)C)CCC(C)(C)C3` showed a melting point of 175 to 177 °C.
The same measure for `COc1ccc2c(c1)CCC1(C)C2=CCC2(C)C(O)CCC12` (centres undefined): 168 °C; for `COc1ccc2c(c1)Sc1c(ccc(OC)c1C=O)N2C`: 150 °C.
The same measure for `O=c1c(Cl)nc2ccccc2n1-c1ccc(Cl)cc1`: over 300 °C.
With `Oc1c(F)cc(Cn2cc[nH]c2=S)cc1F` the figure was 188 °C; with `COc1ccc(NC(=O)NC(=O)Oc2ccccc2)cc1OC`, 140 to 142 °C; with `CC(C)(C)[Si](OCC[C@H](O)CO)(c1ccccc1)c1ccccc1`, 70 to 72 °C.
In turn, `O=C(O)c1cn(CCF)c2cc(F)c(F)cc2c1=O` registered a melting point of 249 to 251 °C.
The compound `CCOC(=O)c1c(Cn2cncn2)nc2cc(OC)c(OC)cc2c1-c1ccc(O)c(OC)c1` registered a melting point of 176 to 178 °C.
`COc1ccc(N2CCN(S(=O)(=O)c3cccc(/C=C/C(=O)NO)c3)CC2)cc1` returned a melting point of 203 °C.
With `CC(/C=C/c1ccccc1)=C\C(=O)NCCCCCC(=O)NO`, the melting point lay within 147 to 149 °C.
`O=C1c2cccc(SCc3ccccc3)c2C(=O)c2cccc(SCc3ccccc3)c21` had a melting point of 281 to 282 °C.
The compound `Cc1cc(OC(C)(C)C(=O)O)cc(C)c1C` yielded a melting point of 77 to 78 °C.
`CCC(CC)Nc1cc(C(=O)O)ccc1N1C(=O)CCC1(CO)CCO` (centres undefined) came in with a melting point of 188 to 190 °C.
Compound `CCCN(CCC)C(=O)CCCN1CC[C@H](CNC(=O)c2ccc(N)cc2OC)[C@H](OC)C1` (relative stereo) gave a melting point of 133 °C.
With `COC(=O)Nc1cc(C(C)(C)C)on1`, the melting point was in the range of 55.5 to 58.5 °C.
Take `CCC1N=C(c2ccccc2Cl)c2cc(CC(=O)O)sc2-n2c(C)nnc21` (centres undefined): the melting point was in the range of 170 to 180 °C.
Consider `CCN(CC)C(=O)Nc1ccc2c(c1Cl)C(c1ccccc1F)=NCC(=O)N2C`, for which the melting point was in the range of 190 to 191 °C.
The same measure for `COc1cc(OC)nc(C(=O)c2cccnc2C(=O)O)n1`: 71 to 73 °C; for `N#CCCn1nc(-c2ccccc2)c(-c2ccccc2)c(C#N)c1=O`: 160 to 161 °C; for `CC(C)(C)OC(=O)N1CCC[C@H](C(=O)c2ccccc2)C1`: 75 to 79 °C.
`CCCCCCCCCCCCOC(=O)N[C@@H](CCCCN)C(=O)O` registered a melting point of over 260 °C.
Compound `CC1(C)CC(=O)c2c(-c3ccccc3)cn(-c3ccccn3)c2C1` had a melting point of 160 to 162 °C.
The same measure for `CC(C)c1[nH]nc(C(N)=O)c1N`: 178 to 179 °C; for `COC(=O)CNc1cccc(C(F)(F)F)c1`: 60 to 63 °C.
The compound `Cc1cccc(N(C)C(=O)COc2cc(C(F)(F)F)no2)c1` returned a melting point of 54 to 55.5 °C.
The same measure for `CNC(=O)Nc1ccc2c(c1)C(CN1CCC(c3ccc(F)cc3)CC1)CC2` (centres undefined): 170 to 173 °C.
`COC(=O)c1ccc(-c2nc3cc([N+](=O)[O-])c([N+](=O)[O-])cc3[nH]2)cc1`: the melting point is 239 to 240 °C.
In turn, `COc1ccc(C[C@@H](CO)NC(=O)c2ccnc(-n3nc(-c4cccnc4)c4ccccc4c3=O)c2)cc1OC` gave a melting point of 135 to 137 °C.
For the compound `O=[N+]([O-])CCc1ccc2ccccc2c1`, the melting point was 59 to 60 °C.
On to `O=C(O)CCC(=O)c1ccc(C2CCCCC2)cc1`, for which the melting point lay within 140 to 141 °C.
As to `Cc1c(CC(=O)NCCO)cc(-c2ccc(S(C)(=O)=O)cc2)n1-c1ccc(F)cc1`, the melting point is 99 °C.
Turning to `O=C(O)CCCCCc1cncc2ccccc12`, the melting point lay in the range of 131 to 132 °C.
Consider `CC(=O)c1cc2c(c(O)c1Cl)C(C)(C)CC2(C)C`, for which the melting point lay within 78 to 80 °C.
Consider `CCOC(=O)CCCCn1c(=O)[nH]c2ccc(OCOCCOC)cc2c1=O`, for which the melting point is 105 to 107 °C.
`NS(=O)(=O)c1ccc(NC(=O)Nc2ccc(Br)cc2)cc1`: the melting point lay in the range of 269 to 271 °C.
Take `Oc1cc(CCc2ccccc2)cc(O)c1O`: the melting point was 124 °C.
Take `Cc1c(C2(c3cccs3)CCC(c3ccccc3)(N(C)C)CC2)[nH]c2ccccc12` (centres undefined): the melting point is 202 to 205 °C.
`C=C(C)C(=O)OCCNC(=O)Nc1ccc(C(=O)O)c(O)c1`: the melting point lay in the range of 208 to 210 °C.
With `Cc1sc2c(Br)c3ccccc3c(-c3cc(Br)c(OC(C)C(=O)O)c(Br)c3)c2c1C` (centres undefined) the figure was 224 to 225 °C; with `COc1ccc(N(CC(=O)NCC(=O)O)C(=O)c2ccc(Cl)cc2)cc1`, 138 to 140 °C.
Regarding `O=C(c1ccccc1Cl)c1cc(Cl)ccc1-n1cnnc1CCl`, the melting point lay in the range of 139 to 140 °C.
With `CCOC(=O)c1cn(CC)c2nc(N3CCN(Cc4ccccc4)CC3)ncc2c1=O` the figure was 152 °C; with `O=C(c1ccccc1)c1ccc(OCCO)cc1O`, 92 to 94 °C.
`Cn1ncnc1COc1nn2c(-c3ccccc3F)nnc2cc1-c1cccc(F)c1` registered a melting point of 204 to 206 °C.
In turn, `COC(=O)C1(CN2CCC(Cc3ccc(F)cc3)CC2)CC(c2ccc3[nH]c(=O)oc3c2)=NO1` (centres undefined) returned a melting point of 146 to 155 °C.
The same measure for `CCOC(=O)c1c(C)nsc1NC(=O)NC(C)C`: 175 to 176 °C; for `Cn1ccc2c3c(C=O)c4ccccc4cc3ccc21`: 175 to 176 °C; for `O=C(c1ccc(F)cc1)C1CCN(C(=O)Cc2ccc(OCc3ccccc3)cc2OCc2ccccc2)CC1`: 158 to 159 °C.
Compound `CCC(=O)Oc1cc(OC)cc(OC)c1C(=O)C=Cc1ccc(SC)cc1` came in with a melting point of 108 °C.
The compound `Cc1cc(C2(C(F)(F)F)CC(c3ccc(F)cc3)=NO2)ccc1N1C(=O)c2cccc([N+](=O)[O-])c2C1=O` (centres undefined) showed a melting point of 221 to 222 °C.
In the case of `CCCN(CCC)C1Cc2cccc3c2N(C1)C(=O)C3` (centres undefined), the melting point was in the range of 86 to 88 °C.
Compound `COc1ccc(C(C#N)CNC(N)=O)cc1OC1CCCC1` (centres undefined) returned a melting point of 55 to 61 °C.
The compound `C=C(C)n1c(=O)n(-c2ccc(CCNC[C@H](O)COc3ccc(O)cc3)cc2)c2ncccc21` had a melting point of 62 to 64 °C.
Turning to `Nc1cc(Cl)c(Br)c(Cl)c1`, the melting point was found to be 132 °C.
With `CNC(=O)c1cc(-c2ccc(OC)cc2)nn(CC#N)c1=O`, the melting point lay within 153 to 155 °C.
Consider `N=C(NO)c1ccc(-c2ccc(-c3ccc(C(=N)NO)o3)o2)nc1`, for which the melting point lay in the range of 248 to 250 °C.
For `Cc1cccc(-c2nc(-c3ccc(S(C)(=O)=O)cc3)sc2-c2ccnc(C)c2)c1`, the melting point fell in the range of 134 to 138 °C.
`NC(=O)c1ccc(-c2cccc3cc(Cc4cccc(C(F)(F)F)c4)sc23)cn1`: the melting point lay in the range of 144 to 145 °C.
Compound `Cc1cc([N+](=O)[O-])c(NCCO)c([N+](=O)[O-])c1` had a melting point of 131 °C.
Compound `CCCCCCCCCCCCn1nnc(C(C(=O)Nc2c(OC)cc(OC)cc2OC)c2ccccc2)n1` (centres undefined) yielded a melting point of 119 to 120 °C.
In turn, `C(=Cc1ccc(-c2ccc(C=Cc3ccccc3)cc2)cc1)c1ccccc1` returned a melting point of 323 to 325 °C.
For `C=CCOc1ccc(OC)c2ccccc12`, the melting point is 30.5 to 32 °C.
With `COc1cc(OC)cc(-c2ncn(-c3ccc(C(F)(F)F)cc3)c2-c2ccc(OC)c(O)c2)c1` the figure was 111 to 113 °C; with `O=S(=O)(c1ccccc1)c1ccc(N2CCNCC2)cn1`, 126 to 127 °C; with `O=C(N[C@H](Cc1ccc(F)cc1)[C@@H](O)c1ccc(C(F)(F)F)cc1)C1CCCCC1` (racemic), 220 to 221 °C.
In the case of `NC(Cc1cccc2c(Cl)cccc12)=NO`, the melting point is 121 to 125 °C.
Compound `COc1ccc2c(c1)NC(=O)C(Cl)(Cl)CC2` showed a melting point of 148 to 150 °C.
The compound `O=C1CCCc2nc(-c3ccccc3)ccc21` yielded a melting point of 128 to 130 °C.
For `O=C(Nc1cc(-c2cccc(C(F)(F)F)c2)no1)c1c(F)cccc1F`, the melting point lay in the range of 123 to 126 °C.
In turn, `Oc1ccc(Oc2cccc(F)c2)cc1` came in with a melting point of 53 to 55 °C.
Turning to `CC(=O)OC1CSC(Oc2ccc(-c3ccncc3)nc2)C(OC(C)=O)C1OC(C)=O` (centres undefined), the melting point was 189 °C.
With `CCCc1c(OCC(O)CSCCN(C)C)ccc(C(C)=O)c1O` (centres undefined) the figure was 54 to 55 °C; with `CC(=O)NCc1ccc(CN2CCN(c3ccc(F)cc3N)CC2)cc1`, 139 to 140 °C.
`CCOC(=O)CC1NCCN(CCc2c[nH]c3ccc(Cl)cc23)C1=O` (centres undefined) returned a melting point of 136 °C.
